Measured values as given in patent US9796672B2, “Isoindoline compositions and methods for treating neurodegenerative disease” (Cognition Therapeutics, Inc., priority 2014, dated 2017).

What was measured:
Sigma-1 receptor = Sigma-1 receptor competitive radioligand binding assay; details: read-out: Sigma-1 Receptor Affinity, Ki
Description: Radioligand binding assays for Sigma-1 receptors and Sigma-2 receptors were carried out by a commercial contract research organization. For Sigma-1 binding, various concentrations of test compounds from 100 μM to 1 nM were used to displace 8 nM [^3H](+)pentazocine from endogenous receptors on Jurkat cell membranes (Ganapathy M E et al. 1991, J Pharmacol. Exp. Ther. 289:251-260). 10 μM Haloperidol was used to define non-specific binding. […] 10 μM Haloperidol was used to define non-specific binding. Reactions were terminated by rapid filtration through Whatman GF/C filters using a Brandel 12R cell harvester followed by two washes with ice-cold buffer. Radioactivity on the dried filter discs was measured using a liquid scintillation analyzer (Tri-Carb 2900TR; PerkinElmer Life and Analytical Sciences). The displacement curves were plotted and the Ki values of the test ligands for the receptor subtypes were determined using GraphPad Prism (GraphPad Software Inc., San Diego, Calif.). The percentage specific binding was determined by dividing the difference between total bound (disintegrations per minute) and nonspecific bound (disintegrations per minute) by the total bound (disintegrations per minute).

Sigma-2 receptor = Sigma-2 receptor competitive radioligand binding assay; set-up: species or system rat; details: read-out: Sigma-2 Receptor Affinity, Ki
Description: Radioligand binding assays for Sigma-1 receptors and Sigma-2 receptors were carried out by a commercial contract research organization. For Sigma-1 binding, various concentrations of test compounds from 100 μM to 1 nM were used to displace 8 nM [^3H](+)pentazocine from endogenous receptors on Jurkat cell membranes (Ganapathy M E et al. 1991, J Pharmacol. Exp. Ther. 289:251-260). 10 μM Haloperidol was used to define non-specific binding. For Sigma-2 receptors various concentrations of test compounds from 100 μM to 1 nM were used to displace 5 nM [^3H] […] (Bowen W D, et al. 1993, Mol. Neuropharmcol 3:117-126). 10 μM Haloperidol was used to define non-specific binding. Reactions were terminated by rapid filtration through Whatman GF/C filters using a Brandel 12R cell harvester followed by two washes with ice-cold buffer. Radioactivity on the dried filter discs was measured using a liquid scintillation analyzer (Tri-Carb 2900TR; PerkinElmer Life and Analytical Sciences). The displacement curves were plotted and the Ki values of the test ligands for the receptor subtypes were determined using GraphPad Prism (GraphPad Software Inc., San Diego, Calif.). The percentage specific binding was determined by dividing the difference between total bound (disintegrations per minute) and nonspecific bound (disintegrations per minute) by the total bound (disintegrations per minute).
The affinity of candidate sigma-2 ligand compounds at sigma-1 and sigma-2 receptors was also determined by displacement of different known labeled sigma-2 or sigma-1 ligands. Filtration assays were conducted according the previously published procedure (Xu, et al., 2005). Test compounds were dissolved in N,N-Dimethylformamide (DMF), dimethyl sulfoxide (DMSO) or ethanol and then diluted in 50 mM Tris-HCl pH 7.4 buffer containing 150 mM NaCl and 100 mM EDTA. Membrane homogenates were made from guinea pig brain for sigma-1 binding assay and rat liver for sigma-2 binding assay. Membrane homogenates were diluted with 50 mM Tris-HCl buffer, pH 8.0 and incubated at 25° C. in a total volume of 150 uL in 96 well plates with the radioligand and test compounds with concentrations ranging from 0.1 nM to 10 uM. After incubation was completed, the reactions were terminated by the addition of 150 uL of ice-cold wash buffer (10 mM Tris HCl, 150 mM NaCl, pH 7.4) using a 96 channel transfer pipette (Fisher Scientific, Pittsburgh, Pa.) and the samples harvested and filtered rapidly through 96 well fiber glass filter plate (Millipore, Billerica, Mass.) that had been presoaked with 100 uL of 50 mM Tris-HCl buffer. Each filter was washed four times with 200 uL of ice-cold wash buffer (10 mM Tris-HCl, 150 mM NaCl, pH 7.4). A Wallac 1450 MicroBeta liquid scintillation counter (Perkin Elmer, Boston, Mass.) was used to quantitate the bound radioactivity.
Nonspecific binding was determined from samples that contained 10 uM of cold haloperidol.
The binding affinity, Ki values was calculated using the method of Cheng and Prusoff.

neuronal cultures = assay: Functional neuronal phenotype in neuronal cultures; type: cell-based; set-up: key: Antagonist: antagonists (block Abeta signaling); Agonist: agonists (block Abeta signaling with U-shaped dose-response curve and toxicity at high doses); Inactive: inactive (no effect in neuronal cultures)
Description: Neuronal cultures are treated with various concentrations of sigma compounds for 24 hours and nuclear intensity compared to vehicle is measured.

potassium channel hERG = potassium channel hERG (Homo sapiens (Human), UniProt Q12809); assay: In vitro toxicity, hERG inhibition; type: biochemical
Chain of potassium channel hERG (Q12809 whole entry): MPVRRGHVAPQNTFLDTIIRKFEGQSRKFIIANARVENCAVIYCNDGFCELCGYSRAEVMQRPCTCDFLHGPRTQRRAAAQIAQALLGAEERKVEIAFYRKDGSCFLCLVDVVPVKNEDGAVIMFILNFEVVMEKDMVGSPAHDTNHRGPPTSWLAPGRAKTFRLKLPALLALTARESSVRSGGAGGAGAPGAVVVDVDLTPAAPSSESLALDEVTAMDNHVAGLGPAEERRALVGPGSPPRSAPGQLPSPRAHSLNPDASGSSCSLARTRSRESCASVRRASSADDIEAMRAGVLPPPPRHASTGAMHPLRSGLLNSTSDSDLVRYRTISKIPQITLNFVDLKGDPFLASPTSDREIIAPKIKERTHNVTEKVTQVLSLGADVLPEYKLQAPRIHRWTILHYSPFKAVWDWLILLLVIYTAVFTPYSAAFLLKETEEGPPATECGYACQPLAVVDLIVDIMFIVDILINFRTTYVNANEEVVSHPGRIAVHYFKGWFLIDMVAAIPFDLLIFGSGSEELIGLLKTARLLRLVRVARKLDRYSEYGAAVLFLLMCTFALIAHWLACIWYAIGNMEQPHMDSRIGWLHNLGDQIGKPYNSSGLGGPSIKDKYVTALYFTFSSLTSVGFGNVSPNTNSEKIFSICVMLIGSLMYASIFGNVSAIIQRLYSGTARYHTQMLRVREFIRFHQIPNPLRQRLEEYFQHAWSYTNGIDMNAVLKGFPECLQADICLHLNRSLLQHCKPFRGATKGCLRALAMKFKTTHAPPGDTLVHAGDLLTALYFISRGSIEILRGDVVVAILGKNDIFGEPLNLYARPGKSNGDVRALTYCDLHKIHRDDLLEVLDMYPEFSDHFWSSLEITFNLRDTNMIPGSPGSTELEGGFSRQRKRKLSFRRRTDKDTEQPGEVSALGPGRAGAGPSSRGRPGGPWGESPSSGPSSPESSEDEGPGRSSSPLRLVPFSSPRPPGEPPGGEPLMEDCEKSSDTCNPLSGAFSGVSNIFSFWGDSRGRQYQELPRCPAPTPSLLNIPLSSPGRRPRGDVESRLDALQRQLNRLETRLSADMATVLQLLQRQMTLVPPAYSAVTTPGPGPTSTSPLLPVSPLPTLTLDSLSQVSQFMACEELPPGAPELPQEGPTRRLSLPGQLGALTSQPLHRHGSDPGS
Description: In vitro toxicity for Test Compounds is tested in a number of standard assays.

[1] = Mouse liver microsome (MLM) stability; type: in vitro ADME
Description: A first pharmacokinetic study was performed in microsomes of mice mouse liver microsomes, MLM) by a commercial contract research organization. The studies were performed according to Obach, R. S et al. (1997) J. Pharmacol. Exp. Ther., 283: 46-58, which is incorporated herein by reference.

[2] = tested on: Abeta oligomer-induced membrane trafficking deficits in primary hippocampal neurons; assay: Membrane trafficking/exocytosis (MTT) assay; details: read-out: Membrane Trafficking EC50; compound dosed prior to Abeta oligomer addition
Description: Primary hippocampal neurons from E18 Sprague-Dawley rat embryos were plated at optimized concentrations in 384 well plates in NB media (Invitrogen). Neurons were maintained in cultures for 3 weeks, with twice weekly feeding of NB media with N2 supplement (Invitrogen).
MTT reagent (3-(4,5-dimethylthizaol-2yl)-2,5diphenyl tetrazolium bromide) (Roche Molecular Biochemicals) was reconstituted in phosphate buffered saline to 5 mg/mL. 10 μL of MTT labeling reagent is added to each well and incubated at 37° C. for 1 h, then imaged. Exocytosis was assessed by automated microscopy and image processing to quantify the amount of endocytosed and exocytosed formazan.
Each assay plate was formatted so that compounds are tested with and without Abeta oligomer on each plate. […] Reduced formazan was first visible in intracellular vesicles. […] The dye precipitated in the aqueous environment of the culture and formed needle-shaped crystals on the surface of the neuron.

Compound	Ki (Sigma-1 receptor) [nM]	Ki (Sigma-2 receptor) [nM]	neuronal phenotype (neuronal cultures)	IC50 (potassium channel hERG) [nM]	Mouse liver microsomes, MLM t½ ([1]; mouse, microsomes) [min]	EC50 [2] [nM]	Mouse liver microsomes, MLM t½ ([1]; mouse liver microsomes) [min]
CC(C)Oc1cc(CCC(C)(C)N2Cc3ccc(S(C)(=O)=O)cc3C2)ccc1O [compound 70]	50	9	Inactive	3100	79	–	–
COCCNC(=O)c1cccc2c1CN(C(C)(C)CCc1ccc(O)c(OC)c1)C2 [compound 84]	10000	10000	–	6600	163	100000	–
CC(C)(C)Oc1cc(CCC(C)(C)N2Cc3c(F)ccc(F)c3C2)ccc1O [compound 74]	2300	550	Antagonist	100000	21	300	–
CC(C)Oc1ccc(CCC(C)(C)N2Cc3ccc(F)cc3C2)cc1OC(C)C [compound 42]	100	6.2	Agonist	800	14	> 20000	–
CC(C)(CCc1ccc(O)c(OC(F)(F)F)c1)N1Cc2cccc(C(=O)O)c2C1 [compound 56]	10000	10000	Weak and Antagonist	49000	617	300	–
COc1cc(CCC(C)(C)N2Cc3cccc(C(=O)NCCN(C)C)c3C2)ccc1O [compound 78]	10000	10000	Neuroactive	110000	450	8800	–
C[C@H](CCc1ccc(OC(=O)N(C)C)c(OC(F)(F)F)c1)N1Cc2ccc(F)cc2C1 [compound 43]	380	140	–	670	5	–	–
CC(C)(C)Oc1cc(CCC(C)(C)N2Cc3cccc(C(=O)O)c3C2)ccc1O [compound 75]	10000	> 10000	Inactive	100000	508	> 20000	–
CC(C)COc1cc(CCC(C)(C)N2Cc3cccc(F)c3C2)ccc1O [compound 88]	96	1.3	Neuroactive	2800	28	360	–
COc1cc(CCC(C)(C)N2Cc3cccc(C(=O)NCCO)c3C2)ccc1O [compound 79]	10000	460	Inactive	11000	144	100000	–
COc1cc2c(cc1OC)CN([C@@H](C)CCc1ccc(Cl)c(Cl)c1)C2 [compound 20]	0.57	0.67	–	660	43	67 to 600	–
C[C@H](CCc1ccc(F)cc1)N1Cc2cccc(F)c2C1 [compound 21]	330	12	Inactive	15000	7	> 20000	–
CC(C)Oc1cc(CC[C@@H](C)N2Cc3cccc(F)c3C2)ccc1O [compound 26]	7.9	41	Inactive	3700	4	> 20000	–
CC(C)(CCc1ccc(O)c(OC(F)(F)F)c1)N1Cc2ccc(S(C)(=O)=O)cc2C1 [compound 61]	33	6.9	Antagonist	790	114	< 20	–
COc1cc(CC[C@@H](C)N2Cc3cccc(F)c3C2)ccc1OCCO [compound 51]	77	800	Neuroactive	1200	66	–	–
CC(C)Oc1ccc(CC[C@@H](C)N2Cc3cc4c(cc3C2)OCO4)cc1OC(C)C [compound 40]	7.8	8.9	–	350	6	–	–
C[C@H](CCc1ccc(F)cc1)N1Cc2cc3c(cc2C1)OCO3 [compound 23]	16	13	Antagonist	370	5	< 250	–
COc1cc(CCC(C)(C)N2Cc3cccc(C(=O)N(C)CCN(C)C)c3C2)ccc1O [compound 81]	–	–	Inactive	10000	88	100000	–
COc1cc2c(cc1OC)CN(C(C)(C)CCc1ccc(OCCO)c(OC)c1)C2 [compound 48]	3600	22	Inactive	1700	582	> 20000	–
COc1cc(CCC(C)(C)N2Cc3cccc(C(=O)N4CCN(C(C)=O)CC4)c3C2)ccc1O [compound 83]	10000	10000	Inactive	10000	336	100000	–

Compound	Ki (Sigma-1 receptor) [nM]	Ki (Sigma-2 receptor) [nM]	neuronal phenotype (neuronal cultures)	IC50 (potassium channel hERG) [nM]	Mouse liver microsomes, MLM t½ ([1]; mouse, microsomes) [min]	EC50 [2] [nM]	Mouse liver microsomes, MLM t½ ([1]; mouse liver microsomes) [min]
CC(C)COc1cc(CCC(C)(C)N2Cc3ccc(S(C)(=O)=O)cc3C2)ccc1O [compound 87]	69	1.1	–	570	86	–	–
C[C@H](CCc1ccc(O)c(OC(C)(C)C)c1)N1Cc2ccc(S(C)(=O)=O)cc2C1 [compound 63]	17	380	Inactive	11000	31	–	–
COc1cc(CCC(C)(C)N2Cc3cccc(C(=O)N(C)CCO)c3C2)ccc1O [compound 85]	10000	360	–	33000	194	–	–
COc1cc(CCC(C)(C)N2Cc3ccc(F)cc3C2)ccc1OC(=O)N(C)C [compound 50]	750	37	weak and antagonist	4400	33	–	–
CC(C)(CCc1ccc(O)c(OC(F)(F)F)c1)N1Cc2cccc(S(C)(=O)=O)c2C1 [compound 67]	55	8.1	Antagonist	44000	39	–	–
CN(C)C(=O)c1cccc2c1CN(C(C)(C)CCc1ccc(O)c(OC(C)(C)C)c1)C2 [compound 59]	10000	57	Inactive	18000	8	–	–
COc1cc(CC[C@@H](C)N2Cc3cccc(S(C)(=O)=O)c3C2)ccc1O [compound 65]	1300	190	Neuroactive	26000	41	–	–
COc1cc(CCC(C)(C)N2Cc3cccc(C(=O)N4CCN(C)CC4)c3C2)ccc1O [compound 82]	–	–	Inactive	52000	27	100000	–
COc1cc(CCC(C)(C)N2Cc3cccc(C(=O)N4CCOCC4)c3C2)ccc1O [compound 80]	–	1400	Inactive	7400	45	100000	–
CC(C)(C)Oc1cc(CCC(C)(C)N2Cc3cccc(S(C)(=O)=O)c3C2)ccc1O [compound 66]	130	2.6	Inactive	19000	10	–	–
COCCN(C)C(=O)c1cccc2c1CN(C(C)(C)CCc1ccc(O)c(OC)c1)C2 [compound 86]	10000	10000	–	5100	19	–	–
COc1cc(CC[C@@H](C)N2Cc3ccc(Cl)cc3C2)ccc1O [compound 1]	31	25	–	430	11	–	–
COc1cc(CCC(C)(C)N2Cc3cccc(S(C)(=O)=O)c3C2)ccc1O [compound 64]	180	8.6	Inactive	20000	52	–	–
COc1cc(CCC(C)(C)N2Cc3cccc(F)c3C2)ccc1OCCO [compound 44]	1300	140	Antagonist	99	29	–	–
COc1cc(CC[C@@H](C)N2Cc3cc4c(cc3C2)OCO4)ccc1O [compound 6]	–	–	Antagonist	980	–	300	20
CC(C)Oc1cc(CC[C@@H](C)N2Cc3ccc(S(C)(=O)=O)cc3C2)ccc1O [compound 69]	27	76	Inactive	9500	75	–	–
CC(C)Oc1cc(CC[C@@H](C)N2Cc3ccc(F)cc3C2)ccc1O [compound 37]	9.1	140	–	480	5	–	–
CC(C)(CCc1ccc(O)c(OC(F)(F)F)c1)N1Cc2c(F)ccc(F)c2C1 [compound 55]	360	310	–	100000	34	–	–
COC[C@H](CCc1ccc(Cl)c(Cl)c1)N1Cc2ccc(F)cc2C1 [compound 46]	94	160	Inactive	1600	5	–	–
